Tests used:
[1] = Elimination half life in Sprague-Dawley rat at 10 mg/kg, iv by LC-MS/MS analysis; format: ADME, organism-based; conditions: in vivo, read-out: beta t1/2
[2] = Elimination half life in Sprague-Dawley rat at 500 mg/kg, po by LC-MS/MS analysis; format: ADME, organism-based; conditions: in vivo, read-out: beta t1/2

COc1cc(/C=C/C(=O)CC(=O)/C=C/c2ccc(O)c(OC)c2)ccc1O [CURCUMIN]
half-life [1]: 28.1 min
half-life [2]: 44.5 min

— ChEMBL document CHEMBL4190354, “A Realistic View on "The Essential Medicinal Chemistry of Curcumin"” (ACS Med Chem Lett, 2017)
